Patent US20100061984A1, “COMPOSITIONS AND METHODS FOR MODULATION OF SUPPRESSOR T CELL ACTIVATION” (The Trustees of the University of Pennsylvania, priority 2006, published 2010)
Marks after values point to notes of the source that are not given here.

Tests used:
[1] = system: autoimmune models; experiment: several autoimmune models (NOD, EAE, CIA); type: in vivo; conditions: MOG-induced EAE and CIA mouse models
Source text: Studies of the rational inactivation of HDACs have been initiated with the intent of modifying FOXP3 acetylation. […] This treatment leads to increased FoxP3^+ suppressor cell levels and function. The models studied include the Nonobese Diabetic Mice (NOD) model, the myelin oligodendrocyte glycoprotein-induced experimental autoimmune encephalomyelitis (EAE) model, and the collagen-induced arthritis (CIA) mouse model.

[2] = system: Non-obese diabetic mouse; experiment: non-obese diabetic mouse model; type: in vivo; conditions: Table 1, 7-10 mice per group, PBS 50%
Source text: (§1) Experiments were done to test the effect of valproic acid (VPA) on autoimmune disease models. Three models were used: a collagen induced arthritis (CIA) model; a non-obese diabetic mouse model; and an experimental autoimmune encephalomyelitis model. Collagen used in the CIA model was collagen from chicken sternal cartilage powder, Type II, from Sigma Cat#C9301. The peptide that was used in EAE experiments was Mouse MOG38-50 peptide ([…]-SEQ ID NO:1), which was synthesized using>F-moc solid phase methods and purified through HPLC by Invitrogen Life Technologies. For each model tested 7-10 mice were used per group. Results obtained with VPA were compared to those using the negative control phosphate buffered saline.

[3] = system: collagen induced arthritis (CIA); experiment: collagen induced arthritis (CIA) disease model of rheumatoid arthritis; type: in vivo, mice
Description: (§2) HDAC inhibitor treatment in collagen induced arthritis: HDAC inhibitor VPA was tested in the collagen induced arthritis (CIA) disease model of rheumatoid arthritis. CD4+ T cells as well as B cells are responsible for disease manifestation within the joints and CD25+ Treg play a protective role in disease development. After disease induction with type II collagen, mice were administered VPA (400 mg/kg) or PBS ip daily for 5 weeks. They were scored for severity of disease twice per week. […] Splenocytes from collagen induced arthritic mice that were treated with VPA (no disease evident) or PBS (disease evident) were analyzed for expression of CD4, CD25 and FOXP3 by flow cytometry. […] Additionally, the intracellular levels of FOXP3 protein were elevated in the VPA treated mice compared to PBS mice (FIG. 10). […] In proposed studies VPA treated CD25+ cells will be compared to PBS treated CD25+ cells for increased functional regulatory activity in vitro. HDAC inhibitor VPA is able to modify disease progression in the CIA model of rheumatoid arthritis.
as §1

[4] = system: Experimental Autoimmune Encephalomyelitis; experiment: experimental autoimmune encephalomyelitis model (MOG38-50 peptide); type: in vivo; conditions: Table 1, 7-10 mice per group, PBS 100%
Source text: as §1

[5] = system: FOXP3+CD25+ cells; experiment: flow cytometry of splenocytes from collagen induced arthritic mice for CD4, CD25 and FOXP3; type: in vivo
Description: Splenocytes from collagen induced arthritic mice treated with VPA (no disease evident) or PBS (disease evident) were stained for cell-surface CD25 and intracellular FOXP3. The CD25+FOXP3+cell subpopulation was gated, and FOXP3 level was analyzed.
as §2

Q: Which “FoxP3+ suppressor cell levels and function” value [1] does the source give for `CC(/C=C/C(=O)NO)=C\[C@@H](C)C(=O)c1ccc(N(C)C)cc1` [TSA, Trichostatin A] here?
A: The value was “increased”.

Q: What about the “clinical effects in autoimmune models” value [1] of the same molecule?
A: Its value is “significant clinical effects”.

Q: For `CCCC(CCC)C(=O)O` [VPA, valproic acid], which “Incidence of Disease” value [2] is on record?
A: The value was 20%.

Q: What about the “Incidence of Disease” value ([3]; Collagen Induced Arthritis, Table 1, 7-10 mice per group, PBS 100%) of the same molecule?
A: The value was 29%.

Q: And the “mice showing any disease at the end of the 5 week study” value ([3]; VPA 400 mg/kg ip daily for 5 weeks after induction with type II collagen, PBS group 100%)?
A: Its value is 25%.

Q: And the “disease severity compared to PBS treated” value ([3]; VPA 400 mg/kg ip daily for 5 weeks, scored twice per week)?
A: The value was “greatly reduced”.

Q: And the “Incidence of Disease” value [4]?
A: Its value is 57%*.

Q: And the “FoxP3+ suppressor cell levels and function” value [1]?
A: Its value is “increased”.

Q: What about the “clinical effects in autoimmune models” value [1] of the same molecule?
A: The value was “significant clinical effects”.

Q: And the “intracellular levels of FOXP3 protein compared to PBS mice” value ([5]; CD25+FOXP3+ gated splenocytes from CIA mice (FIG. 10))?
A: Its value is “elevated”.

Q: And the “increase in the percentage of FOXP3+CD25+ cells, VPA treated versus PBS treated splenocytes” value ([5]; splenocytes from CIA mice, flow cytometry)?
A: The value was 1.63 fold.
